Test [1] deals with MOLM-14 F691L (endogenous FLT3 ITD and transfected FLT3 F691L). As to the kind of experiment: MOLM-14 F691L cell proliferation assay (CellTiter-Glo). In kind it is cell-based. The conditions noted are these: Homo sapiens, MOLM-14, 72 h; 3 d growth, GMean. In outline:
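MOLM-14 cells (FLT3 ITD) carrying D835Y or F691L, 1×10^4 cells/well, eight 1:3 dilutions from 1 μM final, 0.2% DMSO, 3 days at 37 °C, 5% CO2. Viability by CellTiter-Glo luminescence (ATP content); IC50 from concentration-response.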
Background: In ATP-based viability assays light output follows the ATP content of the culture.

The next test deals with T1, BA/F3-FLT3-ITD + D835Y (Homo sapiens, UniProt P36888, D835Y, cells depend on it, form not given).
T1 sequence (P36888 with tags, fused parts or gaps INS600HVDFREYEYD/D835Y): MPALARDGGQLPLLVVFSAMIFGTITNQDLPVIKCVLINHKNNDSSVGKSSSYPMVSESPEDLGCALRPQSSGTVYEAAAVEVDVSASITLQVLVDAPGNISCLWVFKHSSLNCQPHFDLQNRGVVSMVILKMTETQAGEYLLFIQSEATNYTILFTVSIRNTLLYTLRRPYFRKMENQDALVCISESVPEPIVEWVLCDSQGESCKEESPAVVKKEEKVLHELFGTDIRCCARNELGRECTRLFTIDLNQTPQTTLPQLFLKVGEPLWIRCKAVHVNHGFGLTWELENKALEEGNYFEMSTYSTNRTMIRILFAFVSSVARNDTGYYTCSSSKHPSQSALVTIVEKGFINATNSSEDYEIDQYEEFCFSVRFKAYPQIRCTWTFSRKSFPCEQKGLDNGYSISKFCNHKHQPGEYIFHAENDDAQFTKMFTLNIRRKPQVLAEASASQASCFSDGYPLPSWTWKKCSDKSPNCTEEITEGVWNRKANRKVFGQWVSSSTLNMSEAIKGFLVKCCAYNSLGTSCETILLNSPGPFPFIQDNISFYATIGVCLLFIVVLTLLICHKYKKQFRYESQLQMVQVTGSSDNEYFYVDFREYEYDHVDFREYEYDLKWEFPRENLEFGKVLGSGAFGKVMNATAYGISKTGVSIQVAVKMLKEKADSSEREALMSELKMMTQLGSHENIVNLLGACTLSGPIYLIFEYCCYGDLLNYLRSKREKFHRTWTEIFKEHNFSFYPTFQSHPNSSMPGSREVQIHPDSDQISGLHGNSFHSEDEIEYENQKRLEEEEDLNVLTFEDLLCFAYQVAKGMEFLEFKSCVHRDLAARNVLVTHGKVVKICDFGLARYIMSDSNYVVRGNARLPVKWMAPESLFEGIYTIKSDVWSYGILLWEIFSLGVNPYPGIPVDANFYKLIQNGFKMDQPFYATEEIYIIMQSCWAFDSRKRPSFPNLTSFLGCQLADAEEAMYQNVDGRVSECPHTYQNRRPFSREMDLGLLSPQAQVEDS
The test can be described thus: Engineered BA/F3 cell growth assay, FLT3 ITD/D835Y. Format: cell-based, murine. The note with it: 3 d growth. Put shortly:
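IC50 derived from CellTiter-Glo ATP luminescence after 3 days at 37 °C, 5% CO2, over eight 1:3 dilutions from 1 μM (0.2% DMSO final). Cells: IL-3-independent murine Ba/F3 expressing full-length FLT3 ITD/D835Y, 1×10^4 per well.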

The values that follow come from patent US10160747B2, “Compounds and methods for kinase modulation, and indications therefor” (Plexxikon Inc., priority 2016, dated 2018).

Usually IC50 stands for the concentration needed to halve the response being measured. A word on the GI50: it is the concentration giving 50% growth inhibition. Regarding `COc1ncc(NC(=O)Cc2ccc(-c3cnc(Nc4cnn(C)c4)nc3)cc2)cc1C(F)(F)F` [Compound P-0138, N-[6-methoxy-5-(trifluoromethyl)-3-pyridyl]-2-[4-[2-[(1-methylpyrazol-4-yl)amino]pyrimidin-5-yl]phenyl]acetamide], the IC50 in test [1] lay within 0.0001 to 10 µM. For the same molecule, at BA/F3-FLT3-ITD + D835Y, the GI50 lay within 0.0001 to 10 µM.
In the case of `Cn1cc(Nc2ncc(-c3ccc(CC(=O)Nc4cc(C(F)(F)F)ccn4)cc3)cn2)cn1` [Compound P-0139, 2-[4-[2-[(1-methylpyrazol-4-yl)amino]pyrimidin-5-yl]phenyl]-N-[4-(trifluoromethyl)-2-pyridyl]acetamide], in test [1], the IC50 was 0.0001 to 10 µM. Besides, the 50% growth inhibitory concentration (GI50) at BA/F3-FLT3-ITD + D835Y was 0.0001 to 10 µM.
For the molecule `Cc1ncc(NC(=O)Cc2ccc(-c3cnc(Nc4cnn(C)c4)nc3)cc2)cc1C(F)(F)F` [Compound P-0140, 2-[4-[2-[(1-methylpyrazol-4-yl)amino]pyrimidin-5-yl]phenyl]-N-[6-methyl-5-(trifluoromethyl)-3-pyridyl]acetamide], in test [1], the IC50 is 0.0001 to 10 µM. For the same molecule, the GI50 at BA/F3-FLT3-ITD + D835Y was in the range of 0.0001 to 10 µM.
Regarding `Cn1cc(Nc2ncc(-c3ccc(CC(=O)Nc4cccc(C(F)(F)F)c4)cc3)cn2)cn1` [Compound P-0141, 2-[4-[2-[(1-methylpyrazol-4-yl)amino]pyrimidin-5-yl]phenyl]-N-[3-(trifluoromethyl)phenyl]acetamide], the IC50 in test [1] was 0.0001 to 10 µM. Also, the GI50 at BA/F3-FLT3-ITD + D835Y was in the range of 0.0001 to 10 µM.
Molecule `Cn1cc(Nc2ncc(-c3ccc(CC(=O)Nc4ccc(C(F)(F)F)c(F)c4)cc3)cn2)cn1` [Compound P-0142, N-[3-fluoro-4-(trifluoromethyl)phenyl]-2-[4-[2-[(1-methylpyrazol-4-yl)amino]pyrimidin-5-yl]phenyl]acetamide] gave an IC50 in test [1] of 0.0001 to 10 µM. The GI50 at BA/F3-FLT3-ITD + D835Y is 0.0001 to 10 µM.
On to `Cn1cc(Nc2ncc(-c3ccc(CC(=O)Nc4ccc(C(C)(C)C)nc4)cc3)cn2)cn1` [Compound P-0143, N-(6-tert-butyl-3-pyridyl)-2-[4-[2-[(1-methylpyrazol-4-yl)amino]pyrimidin-5-yl]phenyl]acetamide], for which, in test [1], the IC50 was in the range of 0.0001 to 10 µM. For the same molecule, the GI50 on BA/F3-FLT3-ITD + D835Y lay within 0.0001 to 10 µM.
`Cn1cc(Nc2ncc(-c3ccc(CC(=O)Nc4cncc(C(C)(F)F)c4)cc3)cn2)cn1` [Compound P-0144, N-[5-(1,1-difluoroethyl)-3-pyridyl]-2-[4-[2-[(1-methylpyrazol-4-yl)amino]pyrimidin-5-yl]phenyl]acetamide] registered a 50% inhibitory concentration (IC50) in test [1] of 0.0001 to 10 µM. The GI50 on BA/F3-FLT3-ITD + D835Y fell in the range of 0.0001 to 10 µM.
Molecule `Cn1cc(Nc2ncc(-c3ccc(CC(=O)Nc4cnc(Cl)c(C(F)(F)F)c4)cc3)cn2)cn1` [Compound P-0145, N-[6-chloro-5-(trifluoromethyl)-3-pyridyl]-2-[4-[2-[(1-methylpyrazol-4-yl)amino]pyrimidin-5-yl]phenyl]acetamide] registered an IC50 in test [1] of 0.0001 to 10 µM. Besides, the 50% growth inhibitory concentration (GI50) at BA/F3-FLT3-ITD + D835Y was 0.0001 to 10 µM.
For `Cn1cc(Nc2ncc(-c3ccc(CC(=O)Nc4ccc(C(C)(C)C#N)nc4)cc3)cn2)cn1` [Compound P-0146, N-[6-(1-cyano-1-methyl-ethyl)-3-pyridyl]-2-[4-[2-[(1-methylpyrazol-4-yl)amino]pyrimidin-5-yl]phenyl]acetamide], in test [1], the IC50 lay within 0.0001 to 10 µM. Besides, the GI50 on BA/F3-FLT3-ITD + D835Y was in the range of 0.0001 to 10 µM.
Take `COc1ncc(NC(=O)Cc2ccc(-c3cnc(Nc4cn(C)cn4)nc3)cc2)cc1C(F)(F)F` [Compound P-0149, N-[6-methoxy-5-(trifluoromethyl)-3-pyridyl]-2-[4-[2-[(1-methylimidazol-4-yl)amino]pyrimidin-5-yl]phenyl]acetamide]: the half-maximal inhibitory concentration (IC50) in test [1] was in the range of 0.0001 to 10 µM. Moreover, the GI50 at BA/F3-FLT3-ITD + D835Y was 0.0001 to 10 µM.
Molecule `Cc1ncc(NC(=O)Cc2ccc(-c3cnc(Nc4cn(C)cn4)nc3)cc2)cc1C(F)(F)F` [Compound P-0150, 2-[4-[2-[(1-methylimidazol-4-yl)amino]pyrimidin-5-yl]phenyl]-N-[6-methyl-5-(trifluoromethyl)-3-pyridyl]acetamide] displayed an IC50 in test [1] of 0.0001 to 10 µM. Besides, the GI50 at BA/F3-FLT3-ITD + D835Y is 0.0001 to 10 µM.
For the molecule `Cn1cc(Nc2ncc(-c3ccc(CC(=O)Nc4cccc(C(F)(F)F)n4)cc3)cn2)cn1` [Compound P-0152, 2-[4-[2-[(1-methylpyrazol-4-yl)amino]pyrimidin-5-yl]phenyl]-N-[6-(trifluoromethyl)-2-pyridyl]acetamide], in test [1], the 50% inhibitory concentration (IC50) was in the range of 0.0001 to 10 µM. In addition, the GI50 at BA/F3-FLT3-ITD + D835Y was 0.0001 to 10 µM.
As for `Cn1cc(Nc2ncc(-c3ccc(CC(=O)Nc4ccnc(S(C)(=O)=O)c4)cc3)cn2)cn1` [Compound P-0154, 2-[4-[2-[(1-methylpyrazol-4-yl)amino]pyrimidin-5-yl]phenyl]-N-(2-methylsulfonyl-4-pyridyl)acetamide], in test [1], the IC50 lay within 0.0001 to 10 µM. Moreover, the GI50 at BA/F3-FLT3-ITD + D835Y was 0.0001 to 10 µM.
With `Cn1cc(Nc2ncc(-c3ccc(CC(=O)Nc4cccc(S(C)(=O)=O)c4)cc3)cn2)cn1` [Compound P-0155, 2-[4-[2-[(1-methylpyrazol-4-yl)amino]pyrimidin-5-yl]phenyl]-N-(3-methylsulfonylphenyl)acetamide], the IC50 in test [1] fell in the range of 0.0001 to 10 µM. Further, the GI50 on BA/F3-FLT3-ITD + D835Y is 0.0001 to 10 µM.
As to `Cn1cc(Nc2ncc(-c3ccc(CC(=O)Nc4ccc(S(C)(=O)=O)cc4)cc3)cn2)cn1` [Compound P-0156, 2-[4-[2-[(1-methylpyrazol-4-yl)amino]pyrimidin-5-yl]phenyl]-N-(4-methylsulfonylphenyl)acetamide], in test [1], the IC50 lay in the range of 0.0001 to 10 µM. Besides, at BA/F3-FLT3-ITD + D835Y, the GI50 lay in the range of 0.0001 to 10 µM.
Turning to `Cn1cc(Nc2ncc(-c3ccc(CC(=O)Nc4cccc(OC(F)(F)F)c4)cc3)cn2)cn1` [Compound P-0157, 2-[4-[2-[(1-methylpyrazol-4-yl)amino]pyrimidin-5-yl]phenyl]-N-[3-(trifluoromethoxy)phenyl]acetamide], the IC50 in test [1] lay within 0.0001 to 10 µM. For the same molecule, the GI50 on BA/F3-FLT3-ITD + D835Y lay in the range of 0.0001 to 10 µM.
Regarding `Cn1cc(Nc2ncc(-c3ccc(CC(=O)Nc4cccc(C(C)(C)C#N)c4)cc3)cn2)cn1` [Compound P-0158, N-[3-(1-cyano-1-methyl-ethyl)phenyl]-2-[4-[2-[(1-methylpyrazol-4-yl)amino]pyrimidin-5-yl]phenyl]acetamide], in test [1], the IC50 was 0.0001 to 10 µM. Moreover, at BA/F3-FLT3-ITD + D835Y, the GI50 was in the range of 0.0001 to 10 µM.
For `Cn1cc(Nc2ncc(-c3ccc(CC(=O)NCc4ncccc4C(F)(F)F)cc3)cn2)cn1` [Compound P-0159, 2-[4-[2-[(1-methylpyrazol-4-yl)amino]pyrimidin-5-yl]phenyl]-N-[[3-(trifluoromethyl)-2-pyridyl]methyl]acetamide], the IC50 in test [1] fell in the range of 0.0001 to 10 µM. Also, the GI50 on BA/F3-FLT3-ITD + D835Y lay in the range of 0.0001 to 10 µM.
Regarding `COc1ccccc1CNC(=O)Cc1ccc(-c2cnc(Nc3cnn(C)c3)nc2)cc1` [Compound P-0160, N-[(2-methoxyphenyl)methyl]-2-[4-[2-[(1-methylpyrazol-4-yl)amino]pyrimidin-5-yl]phenyl]acetamide], the IC50 in test [1] lay in the range of 0.0001 to 10 µM. In addition, the GI50 on BA/F3-FLT3-ITD + D835Y lay within 0.0001 to 10 µM.
The molecule `Cn1cc(Nc2ncc(-c3ccc(CC(=O)NCc4cncc(C(F)(F)F)c4)cc3)cn2)cn1` [Compound P-0161, 2-[4-[2-[(1-methylpyrazol-4-yl)amino]pyrimidin-5-yl]phenyl]-N-[[5-(trifluoromethyl)-3-pyridyl]methyl]acetamide] came in with an IC50 in test [1] of 0.0001 to 10 µM. At BA/F3-FLT3-ITD + D835Y, the concentration for 50% growth inhibition (GI50) lay within 0.0001 to 10 µM.
In the case of `Cn1cc(Nc2ncc(-c3ccc(CC(=O)Nc4cc(Cl)c(C5CC5)cn4)cc3)cn2)cn1` [Compound P-0164, N-(4-chloro-5-cyclopropyl-2-pyridyl)-2-[4-[2-[(1-methylpyrazol-4-yl)amino]pyrimidin-5-yl]phenyl]acetamide], the IC50 in test [1] was in the range of 0.0001 to 10 µM. The GI50 on BA/F3-FLT3-ITD + D835Y lay in the range of 0.0001 to 10 µM.
